Assay results from patent US11331299B2, “Medicinal use of serrulatane diterpenes” (The University of Sydney, priority 2016, dated 2022).
Where two headings read alike, the source gives them in different places.

Columns and labels:
TIP60(h) = TIP60(h) (Homo sapiens, UniProt Q92993); experiment: Epigenetic enzyme assay, Histone acetyltransferases (HATs); assay type: biochemical; details: read-out: % Inhibition of Control Values
[1] = biological target: Aurora B (h) (substrate histone H3 full length) (Homo sapiens, UniProt Q96GD4); experiment: Epigenetic enzyme assay, Kinases; assay type: biochemical; details: read-out: % Inhibition of Control Values
Chain of Aurora B (h) (substrate histone H3 full length) (Q96GD4 whole entry): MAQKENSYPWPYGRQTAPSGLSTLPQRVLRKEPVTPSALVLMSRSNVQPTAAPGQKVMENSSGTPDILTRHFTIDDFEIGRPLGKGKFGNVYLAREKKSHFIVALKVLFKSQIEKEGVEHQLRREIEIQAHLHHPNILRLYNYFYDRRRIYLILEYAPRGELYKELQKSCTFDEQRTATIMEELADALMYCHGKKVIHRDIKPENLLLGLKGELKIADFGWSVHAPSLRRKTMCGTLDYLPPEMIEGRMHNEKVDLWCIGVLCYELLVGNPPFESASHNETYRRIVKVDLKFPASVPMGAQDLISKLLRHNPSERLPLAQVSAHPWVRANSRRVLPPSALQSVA

HAT1(h) = biological target: T1, HAT1(h) (Homo sapiens, UniProt O14929); experiment: Epigenetic enzyme assay, Histone acetyltransferases (HATs); assay type: biochemical; details: read-out: % Inhibition of Control Values
T1 sequence (O14929 1-419): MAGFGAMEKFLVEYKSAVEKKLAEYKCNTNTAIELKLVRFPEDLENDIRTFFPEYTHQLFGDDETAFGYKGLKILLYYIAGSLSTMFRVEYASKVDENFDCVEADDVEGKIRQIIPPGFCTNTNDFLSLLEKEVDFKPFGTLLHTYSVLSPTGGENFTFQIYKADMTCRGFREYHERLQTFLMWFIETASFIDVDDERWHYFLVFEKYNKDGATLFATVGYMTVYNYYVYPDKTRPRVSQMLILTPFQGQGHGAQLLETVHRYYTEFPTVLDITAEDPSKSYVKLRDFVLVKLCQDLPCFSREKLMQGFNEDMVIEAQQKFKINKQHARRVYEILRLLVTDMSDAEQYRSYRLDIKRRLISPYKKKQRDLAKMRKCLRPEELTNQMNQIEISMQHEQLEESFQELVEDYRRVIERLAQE

CYP3A = CYP3A (Homo sapiens, UniProt P08684); experiment: Cytochrome P450 Inhibition (CYP panel); assay type: in vitro ADME; details: probe testosterone; for inhibition at 1 µM: human liver microsomes; for inhibition at 10 µM: liver microsomes
Chain of CYP3A (P08684 2-503): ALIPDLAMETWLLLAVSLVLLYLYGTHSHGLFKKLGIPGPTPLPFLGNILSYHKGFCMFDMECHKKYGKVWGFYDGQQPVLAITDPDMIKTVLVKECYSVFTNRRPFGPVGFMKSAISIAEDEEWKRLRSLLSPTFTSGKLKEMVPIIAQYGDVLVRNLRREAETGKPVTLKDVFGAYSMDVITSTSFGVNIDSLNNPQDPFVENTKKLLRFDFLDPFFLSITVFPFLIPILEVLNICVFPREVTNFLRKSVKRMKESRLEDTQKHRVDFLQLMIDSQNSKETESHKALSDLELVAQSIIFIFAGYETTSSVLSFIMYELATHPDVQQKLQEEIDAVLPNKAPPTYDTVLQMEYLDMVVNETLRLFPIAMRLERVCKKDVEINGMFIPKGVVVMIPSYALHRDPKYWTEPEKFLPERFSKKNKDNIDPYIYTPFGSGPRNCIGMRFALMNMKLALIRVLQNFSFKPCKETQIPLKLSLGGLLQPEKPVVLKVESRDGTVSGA

MYST3(h) = MYST3(h) (Homo sapiens, UniProt Q92794); experiment: Epigenetic enzyme assay, Histone acetyltransferases (HATs); assay type: biochemical; details: read-out: % Inhibition of Control Values
PRMT6 (h) = PRMT6 (h) (Homo sapiens, UniProt Q96LA8); experiment: Epigenetic enzyme assay, Methyltransferases (MTs); assay type: biochemical; details: read-out: % Inhibition of Control Values
Chain of PRMT6 (h) (Q96LA8 whole entry): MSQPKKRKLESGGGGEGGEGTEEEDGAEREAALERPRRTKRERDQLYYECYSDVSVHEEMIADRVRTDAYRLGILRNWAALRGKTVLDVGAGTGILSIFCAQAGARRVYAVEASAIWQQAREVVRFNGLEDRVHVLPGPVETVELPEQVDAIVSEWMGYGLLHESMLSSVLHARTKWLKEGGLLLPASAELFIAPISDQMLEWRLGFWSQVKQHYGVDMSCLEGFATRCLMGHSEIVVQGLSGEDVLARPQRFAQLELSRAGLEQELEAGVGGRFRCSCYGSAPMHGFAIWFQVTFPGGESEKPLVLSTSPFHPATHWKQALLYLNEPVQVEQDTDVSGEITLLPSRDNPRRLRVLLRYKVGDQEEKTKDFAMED

[2] = biological target: T2, sirtuin 2 (h) (inhibitor effect) (Homo sapiens, UniProt Q8IXJ6); experiment: Epigenetic enzyme assay, Sirtuins; assay type: biochemical; details: 10 μM; read-out: % Inhibition of Control Values
T2 sequence (Q8IXJ6 1-389): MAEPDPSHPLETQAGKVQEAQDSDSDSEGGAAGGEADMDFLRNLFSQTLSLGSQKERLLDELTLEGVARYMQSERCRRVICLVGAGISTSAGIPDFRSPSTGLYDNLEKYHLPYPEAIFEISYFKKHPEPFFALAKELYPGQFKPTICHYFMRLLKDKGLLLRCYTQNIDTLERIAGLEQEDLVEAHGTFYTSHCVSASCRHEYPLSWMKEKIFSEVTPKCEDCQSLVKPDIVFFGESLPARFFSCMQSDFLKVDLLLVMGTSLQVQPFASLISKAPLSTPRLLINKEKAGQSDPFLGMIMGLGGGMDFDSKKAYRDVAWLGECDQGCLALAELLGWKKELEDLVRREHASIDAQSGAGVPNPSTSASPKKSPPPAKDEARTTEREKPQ

CYP2C19 = biological target: T3, CYP2C19 (Homo sapiens, UniProt P33261); experiment: Cytochrome P450 Inhibition (CYP panel); assay type: in vitro ADME; details: human liver microsomes, probe omeprazole
T3 construct: Human liver microsomes; from tissue; host or cells: human liver microsomes
T3 sequence (P33261 whole entry): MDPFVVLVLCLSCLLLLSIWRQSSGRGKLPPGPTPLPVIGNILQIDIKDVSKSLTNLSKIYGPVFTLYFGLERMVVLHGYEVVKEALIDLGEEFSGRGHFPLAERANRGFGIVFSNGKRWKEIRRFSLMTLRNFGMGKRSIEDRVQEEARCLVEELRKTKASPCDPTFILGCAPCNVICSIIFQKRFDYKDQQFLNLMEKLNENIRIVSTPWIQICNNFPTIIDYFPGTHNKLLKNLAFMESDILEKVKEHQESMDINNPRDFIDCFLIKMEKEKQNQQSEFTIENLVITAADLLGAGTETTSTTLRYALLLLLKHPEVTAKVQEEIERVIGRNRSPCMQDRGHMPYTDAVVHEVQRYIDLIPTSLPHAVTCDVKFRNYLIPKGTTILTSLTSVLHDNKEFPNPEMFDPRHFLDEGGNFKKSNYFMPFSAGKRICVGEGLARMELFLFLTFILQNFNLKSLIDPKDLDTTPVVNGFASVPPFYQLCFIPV

PHF8(h) = PHF8(h) (Homo sapiens, UniProt Q9UPP1); experiment: Epigenetic enzyme assay, Demethylases (KDMs); assay type: biochemical; details: read-out: % Inhibition of Control Values
Chain of PHF8(h) (Q9UPP1 whole entry): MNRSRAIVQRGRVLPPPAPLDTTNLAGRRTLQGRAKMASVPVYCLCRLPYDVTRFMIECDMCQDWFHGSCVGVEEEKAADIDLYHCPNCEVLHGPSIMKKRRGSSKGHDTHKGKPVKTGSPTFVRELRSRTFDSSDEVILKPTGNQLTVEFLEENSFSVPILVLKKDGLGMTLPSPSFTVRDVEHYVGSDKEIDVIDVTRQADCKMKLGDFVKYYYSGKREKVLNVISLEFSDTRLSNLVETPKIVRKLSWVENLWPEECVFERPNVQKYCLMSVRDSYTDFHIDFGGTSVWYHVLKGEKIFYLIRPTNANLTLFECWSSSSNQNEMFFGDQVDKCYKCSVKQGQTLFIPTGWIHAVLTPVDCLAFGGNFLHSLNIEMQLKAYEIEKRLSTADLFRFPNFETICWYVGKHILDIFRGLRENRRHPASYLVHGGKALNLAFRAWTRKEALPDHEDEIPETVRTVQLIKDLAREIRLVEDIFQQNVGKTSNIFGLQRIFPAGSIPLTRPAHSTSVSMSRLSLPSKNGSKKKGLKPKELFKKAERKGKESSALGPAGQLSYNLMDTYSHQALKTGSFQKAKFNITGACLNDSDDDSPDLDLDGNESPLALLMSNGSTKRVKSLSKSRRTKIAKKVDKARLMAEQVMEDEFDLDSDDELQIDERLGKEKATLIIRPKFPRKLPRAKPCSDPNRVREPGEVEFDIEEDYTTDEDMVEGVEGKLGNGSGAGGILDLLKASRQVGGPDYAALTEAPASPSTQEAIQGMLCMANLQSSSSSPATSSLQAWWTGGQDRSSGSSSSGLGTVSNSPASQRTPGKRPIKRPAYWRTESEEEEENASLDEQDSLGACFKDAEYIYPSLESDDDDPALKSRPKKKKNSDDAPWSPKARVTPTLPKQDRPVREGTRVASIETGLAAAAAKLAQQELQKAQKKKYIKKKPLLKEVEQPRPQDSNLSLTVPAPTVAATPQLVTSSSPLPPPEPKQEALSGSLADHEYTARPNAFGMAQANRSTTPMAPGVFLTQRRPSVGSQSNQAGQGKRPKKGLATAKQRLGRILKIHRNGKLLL

WHSC1(h) (NSD2(h)) = biological target: T4, WHSC1(h) (NSD2(h)) (Homo sapiens, UniProt O96028); experiment: Epigenetic enzyme assay, Methyltransferases (MTs); assay type: biochemical; details: 10 μM; read-out: % Inhibition of Control Values
T4 sequence (O96028 1-1365): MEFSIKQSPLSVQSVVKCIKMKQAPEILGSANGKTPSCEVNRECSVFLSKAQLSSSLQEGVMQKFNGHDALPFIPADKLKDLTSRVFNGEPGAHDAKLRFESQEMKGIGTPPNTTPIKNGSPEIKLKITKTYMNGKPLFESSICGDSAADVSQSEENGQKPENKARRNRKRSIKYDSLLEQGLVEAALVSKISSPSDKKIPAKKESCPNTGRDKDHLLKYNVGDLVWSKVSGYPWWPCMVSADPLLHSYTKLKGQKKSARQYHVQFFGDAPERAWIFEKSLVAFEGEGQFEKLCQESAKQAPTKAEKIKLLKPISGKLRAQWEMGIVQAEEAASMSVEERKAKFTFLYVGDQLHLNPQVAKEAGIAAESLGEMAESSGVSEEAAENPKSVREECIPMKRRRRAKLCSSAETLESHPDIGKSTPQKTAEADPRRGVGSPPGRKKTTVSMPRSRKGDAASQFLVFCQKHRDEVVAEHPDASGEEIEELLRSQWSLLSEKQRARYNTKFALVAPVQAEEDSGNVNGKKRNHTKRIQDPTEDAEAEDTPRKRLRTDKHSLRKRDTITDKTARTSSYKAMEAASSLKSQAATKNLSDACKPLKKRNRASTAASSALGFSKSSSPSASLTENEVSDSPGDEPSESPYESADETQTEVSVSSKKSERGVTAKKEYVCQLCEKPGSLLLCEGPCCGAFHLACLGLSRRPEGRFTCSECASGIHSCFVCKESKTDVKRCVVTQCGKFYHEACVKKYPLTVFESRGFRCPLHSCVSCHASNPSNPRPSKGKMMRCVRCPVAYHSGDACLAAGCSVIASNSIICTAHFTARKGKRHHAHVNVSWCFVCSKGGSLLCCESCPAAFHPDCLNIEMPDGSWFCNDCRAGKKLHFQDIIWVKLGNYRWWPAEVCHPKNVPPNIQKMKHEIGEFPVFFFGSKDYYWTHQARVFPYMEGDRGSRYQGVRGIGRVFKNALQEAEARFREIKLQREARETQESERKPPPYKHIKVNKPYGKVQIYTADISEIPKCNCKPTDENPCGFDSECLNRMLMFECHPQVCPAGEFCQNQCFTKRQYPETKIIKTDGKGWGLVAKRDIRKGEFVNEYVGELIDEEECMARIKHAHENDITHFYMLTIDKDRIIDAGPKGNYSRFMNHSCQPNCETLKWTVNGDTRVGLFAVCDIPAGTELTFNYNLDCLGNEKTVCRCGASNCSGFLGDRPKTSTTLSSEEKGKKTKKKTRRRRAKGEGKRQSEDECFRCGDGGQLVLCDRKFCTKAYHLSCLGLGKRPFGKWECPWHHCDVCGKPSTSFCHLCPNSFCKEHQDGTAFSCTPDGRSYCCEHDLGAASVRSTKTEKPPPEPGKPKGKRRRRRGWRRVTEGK

HDAC1 (h) = HDAC1 (h) (Homo sapiens, UniProt Q13547); experiment: Epigenetic enzyme assay, Histone deacetylase (HDACs); assay type: biochemical; details: read-out: % Inhibition of Control Values
Chain of HDAC1 (h) (Q13547 whole entry): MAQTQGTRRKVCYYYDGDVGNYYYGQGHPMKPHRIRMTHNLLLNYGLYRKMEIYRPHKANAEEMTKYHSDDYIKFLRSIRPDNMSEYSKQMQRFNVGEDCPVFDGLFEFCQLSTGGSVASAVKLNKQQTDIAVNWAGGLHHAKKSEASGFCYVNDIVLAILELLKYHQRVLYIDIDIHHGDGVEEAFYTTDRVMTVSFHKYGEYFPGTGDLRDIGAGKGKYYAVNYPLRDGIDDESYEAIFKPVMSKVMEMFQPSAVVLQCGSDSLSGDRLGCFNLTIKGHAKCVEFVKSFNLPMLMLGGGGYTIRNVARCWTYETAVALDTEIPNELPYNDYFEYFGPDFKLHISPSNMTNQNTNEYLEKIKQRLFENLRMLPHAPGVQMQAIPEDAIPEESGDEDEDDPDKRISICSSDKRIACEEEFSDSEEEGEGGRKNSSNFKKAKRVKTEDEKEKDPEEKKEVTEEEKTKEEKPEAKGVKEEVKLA

[3] = CYP3A (testosterone sub.), Human liver microsomes, read-out: % Inhibition of Control Values
[4] = CYP2C19 (omeprazole sub.), Human liver microsomes, read-out: % Inhibition of Control Values

Chain of TIP60(h) (Q92993 whole entry): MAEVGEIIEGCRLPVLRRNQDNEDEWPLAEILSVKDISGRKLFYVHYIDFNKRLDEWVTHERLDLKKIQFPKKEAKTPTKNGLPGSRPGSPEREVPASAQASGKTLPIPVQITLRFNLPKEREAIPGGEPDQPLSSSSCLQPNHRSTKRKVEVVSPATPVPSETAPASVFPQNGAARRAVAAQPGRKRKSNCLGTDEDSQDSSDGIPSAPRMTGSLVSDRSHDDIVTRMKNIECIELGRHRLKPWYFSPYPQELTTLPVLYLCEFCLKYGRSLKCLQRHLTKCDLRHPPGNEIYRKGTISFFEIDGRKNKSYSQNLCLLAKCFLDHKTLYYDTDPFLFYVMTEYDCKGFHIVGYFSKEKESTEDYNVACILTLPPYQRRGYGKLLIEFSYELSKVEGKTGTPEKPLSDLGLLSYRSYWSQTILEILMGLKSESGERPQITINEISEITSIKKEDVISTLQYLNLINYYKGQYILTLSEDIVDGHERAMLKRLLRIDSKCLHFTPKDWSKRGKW

Row | Structure (SMILES) | inhibition at 10 µM (TIP60(h)) [%] | inhibition at 10 µM [1] [%] | inhibition at 10 µM (HAT1(h)) [%] | inhibition at 1 µM (CYP3A; read-out: % inhibition) [%] | inhibition at 1 µM (CYP3A; [3]) [%] | inhibition at 10 µM (CYP3A; [3]) [%] | inhibition at 10 µM (MYST3(h)) [%] | inhibition at 10 µM (PRMT6 (h)) [%] | inhibition at 10 µM [2] [%] | inhibition at 1 µM (CYP2C19; read-out: % inhibition) [%] | inhibition at 1 µM (CYP2C19; [4]) [%] | inhibition at 10 µM (CYP2C19; [4]) [%] | inhibition at 10 µM (PHF8(h)) [%] | inhibition at 10 µM (WHSC1(h) (NSD2(h))) [%] | inhibition at 10 µM (HDAC1 (h)) [%]
1 | CC(C)=CCC[C@H](CO)[C@@H]1CC[C@@H](C)c2c1cc(C)c(O)c2O [Compound 1, 7,8,18-trihydroxyserrulat-14-ene] | 20 | 6 | -3 | 7 to 20 | 7 | 77 | 18 | 49 | -4 | 25 to 37 | 37 | 90 | 36 | 3 | -2
2 | CC(C)=CCC[C@@H]1COc2c(C)cc(O)c3c2[C@H]1CC[C@H]3C [Compound 3, 5,18-epoxy-8-hydroxyserrulat-14-ene] | -3 | -1 | -3 | – | – | – | 3 | 34 | -19 | – | – | – | 13 | 7 | -1
3 | CC(C)=CCC[C@H](C)[C@@H]1CC[C@@H](C)c2c1cc(C)c(O)c2O [Compound 4, 7,8-dihydroxyserrulat-14-ene] | – | – | – | 7 to 20 | 20 | 48 | – | – | – | 25 to 37 | 25 | 78 | – | – | –
4 | CC(C)=CCC[C@@H]1C(O)Oc2c(C)cc(O)c3c2[C@H]1CC[C@H]3C (stereo partly drawn) [Compound 2, 5,18-epoxyserrulat-14-en-8,18-diol] | 10 | 4 | 3 | 7 to 20 | 17 | 57 | 11 | 57 | 6 | 25 to 37 | 34 | 73 | -11 | 14 | -1
